Measured values taken from patent US20240376085A1 (Janssen Pharmaceutica NV, priority 2021, published 2024).

Legend:
[1] = system: IL-17A-induced G-CSF production in human normal keratinocyte (NHK); test: NHK assay: IL-17A-induced G-CSF production in normal human keratinocytes; type: cell-based; conditions: 24 h, IL-17A 5 ng/mL, average if tested more than once
Experimental: IL-17A acts directly on keratinocytes through binding to dimeric receptor IL-17RA/RC and drives the production of a number of inflammatory mediators known to be elevated in psoriasis lesional tissue. IL-17A small molecule inhibitors that block the IL-17A to interact with IL-17R would inhibit the IL-17A signaling in its targeted cells such as keratinocytes. The compound functional activity is evaluated for its impact on IL-17A-induced G-CSF production in human normal keratinocyte (NHK).
Adult normal human keratinocytes are cultured in keratinocyte growth medium (Lonza) in a flask till reaching ˜90% confluence, then cells are transferred to a 384-well plate at density of 3000-4000 cell/well. Recombinant human IL-17A (Gibco PHC9174) is pre-incubated with titrated compound or DMSO for 1 h at rt then added to the cell culture plate. The final concentration of IL-17A is 5 ng/mL and DMSO is 0.2%, in the culture containing 5% FBS. Cells are cultured/treated for 24 h at 37° C. Supernatants are collected and G-CSF production is measured through HTRF technology using Human G-CSF Kit (CisBio). G-CSF concentration was extrapolated from the standard curve and IC50 is determined using GraphPad Prism. Cell viability is also evaluated using CellTiter-Glo kit (Promega) and effect of compound on cell viability is compared to DMSO control.

[2] = biological target: T1, IL-17A : IL-17RA binding (Homo sapiens, UniProt Q16552, K93Q); test: IL-17A(FLAG-tagged):IL-17RA(His-tagged) binding disruption Eu-HTRF assay, Protocol 1; conditions: FLAG-IL-17A 2.5 nM at 2x final concentration; average if tested more than once
T1 construct: Name: IL-17A-Flag
From the text: An antibody directed against the FLAG tag of IL-17A (SEQ ID NO: 1) is labeled with the HTRF donor chromophore (Europium-cryptate). IL-17A is present as a dimer that is “locked into” this quaternary structure due to the formation of loop-spanning […] disulfide bridges. The construct of IL-17RA used in the assay excludes the […] portion of the receptor and is fused to a C-terminal 10×His tag (SEQ ID NO:2). An antibody directed against the His tag of the IL-17RA chimera is labeled with the HTRF acceptor chromophore (“D2”). The fluorescence-resonance energy transfer (FRET) depends on the vicinity of the donor chromophore to the acceptor, and interruption of the binding between the IL-17A and IL-17RA causes the reduction/loss of FRET. Therefore, this assay allows to evaluate the compound effect on the binding IL-17A and IL-17RA by monitoring the fluorescence intensity of donor vs acceptor. The assay was run using either Protocol 1 or Protocol 2 as described below.
Protocol 1. 40 nl of 2-fold serial diluted compound solution for total 22 dilution points is added into each well of a 1536-well, white, low-volume, non-binding plate (Greiner #782904), then 2 μl of FLAG tagged IL-17A at 2× final concentration (2.5 nM) in solution of PBS+0.01% Triton-X100 is added to each well. The assay plate is briefly centrifuged then incubated for 1 h at rt. A mixed solution is prepared containing 2×5 nM 10HIS×IL-17RA, 2×2.5 nM Eu-anti-FLAG (CISBIO), 2×5 nM D2-anti-HIS (CISBIO) in PBS+0.01% Triton-X100+200 mM Potassium Fluoride (Sigma 60238) and 2 μl of mix is added to each well of the assay plate. The plate is briefly centrifuged then incubated for 2 h at rt. The HTRF intensities at the wavelength of donor (620 nm) and acceptor (665 nm) are measured using BMG Pherastar. The ratio between intensities at two wavelengths is calculated and plotted against the compound concentration and the data is fitted to a one-site competition model to yield IC50 of the compound.

T1 sequence (Q16552 with tags, fused parts or gaps K93Q): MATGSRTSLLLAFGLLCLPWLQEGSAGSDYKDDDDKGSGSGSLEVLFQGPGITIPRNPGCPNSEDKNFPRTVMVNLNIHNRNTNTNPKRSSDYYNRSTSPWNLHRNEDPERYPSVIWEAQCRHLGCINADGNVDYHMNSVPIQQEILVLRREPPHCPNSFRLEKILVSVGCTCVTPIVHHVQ

SMILES	IC50 ([1]; Homo sapiens, Keratinocyte) [nM]	IC50 [2] [nM]	IC50 [1] [nM]
C[C@@H](NC(=O)CCC(F)(F)F)c1ccc2[nH]c([C@@H](NC(=O)c3cnn(CCC4CC4)n3)C3CCC(F)(F)CC3)nc2c1 [Example 12, 2-(2-Cyclopropylethyl)-N—[(S)-(4,4-difluorocyclohexyl)-[6-[(1R)-1-(4,4,4-trifluorobutanoylamino)ethyl]-1H-benzimidazol-2-yl]methyl]triazole-4-carboxamide]	> 100	50 to 100	
C[C@@H](NC(=O)CCC(F)(F)F)c1ccc2nc([C@@H](NC(=O)c3ccnn3CCC(F)(F)F)C3CCC(F)(F)CC3)[nH]c2c1 [Example 121, N—((S)-(4,4-Difluorocyclohexyl)(6-((R)-1-(4,4,4-trifluorobutanamido)ethyl)-1H-benzo[d]imidazol-2-yl)methyl)-1-(3,3,3-trifluoropropyl)-1H-pyrazole-5-carboxamide]	< 50	> 100	
C[C@@H](NC(=O)CC(C(F)(F)F)C(F)(F)F)c1ccc2[nH]c([C@@H](NC(=O)c3ccnn3CCC(F)(F)F)C3CCC(F)(F)CC3)nc2c1 [Example 126, N—((S)-(4,4-Difluorocyclohexyl)(5-((R)-1-(4,4,4-trifluoro-3-(trifluoromethyl)butanamido)ethyl)-1H-benzo[d]imidazol-2-yl)methyl)-1-(3,3,3-trifluoropropyl)-1H-pyrazole-5-carboxamide]	50 to 100	> 100	
Cc1nonc1C(=O)N[C@@H](C[C@H]1CCC(F)(F)C1)c1nc2ccc([C@H](NC(=O)CC3CC(F)(F)C3)C3CC3)cc2[nH]1 [Example 235, N—((S)-1-(6-((R)-Cyclopropyl(2-(3,3-difluorocyclobutyl)acetamido)methyl)-1H-benzo[d]imidazol-2-yl)-2-((R)-3,3-difluorocyclopentyl)ethyl)-4-methyl-1,2,5-oxadiazole-3-carboxamide]	> 100	> 100	
C[C@@H](NC(=O)CCC(F)(F)F)c1ccc2nc([C@@H](NC(=O)c3cc(F)ccc3F)C3CCC(F)(F)CC3)[nH]c2c1 [Example 123, N—((S)-(4,4-Difluorocyclohexyl)(6-((R)-1-(4,4,4-trifluorobutanamido)ethyl)-1H-benzo[d]imidazol-2-yl)methyl)-2,5-difluorobenzamide]	> 100	> 100	
C[C@@H](NC(=O)CCC(F)(F)F)c1ccc2[nH]c([C@@H](NC(=O)c3ccnn3C)C3CCC(F)(F)CC3)nc2c1 [Example 118, N—((S)-(4,4-Difluorocyclohexyl)(5-((R)-1-(4,4,4-trifluorobutanamido)ethyl)-1H-benzo[d]imidazol-2-yl)methyl)-1-methyl-1H-pyrazole-5-carboxamide]	50 to 100	> 100	
C[C@@H](NC(=O)CCC(F)(F)F)c1ccc2[nH]c([C@@H](NC(=O)c3ccc(CCC(F)(F)F)s3)C3CCC(F)(F)CC3)nc2c1 [Example 221, N—((S)-(4,4-Difluorocyclohexyl)(5-((R)-1-(4,4,4-trifluorobutanamido)ethyl)-1H-benzo[d]imidazol-2-yl)methyl)-5-(3,3,3-trifluoropropyl)thiophene-2-carboxamide]	> 100	> 100	
COCCn1ncc(C(=O)N[C@H](c2nc3cc([C@@H](C)NC(=O)CCC(F)(F)F)ccc3[nH]2)C2CCC(F)(F)CC2)n1 [Example 14, N—[(S)-(4,4-Difluorocyclohexyl)-[6-[(1R)-1-(4,4,4-trifluorobutanoylamino)ethyl]-1H-benzimidazol-2-yl]methyl]-2-(2-methoxyethyl)triazole-4-carboxamide]	> 100	> 100	
Cc1nonc1C(=O)N[C@@H](CC(C)(C)C(F)(F)F)c1nc2ccc([C@H](NC(=O)CC3CC3(F)F)C3CC3)cc2[nH]1 (single isomer, unassigned) [Example 184, N—((S)-1-(6-((R)-Cyclopropyl(2-((S*)-2,2-difluorocyclopropyl)acetamido)methyl)-1H-benzo[d]imidazol-2-yl)-4,4,4-trifluoro-3,3-dimethylbutyl)-4-methyl-1,2,5-oxadiazole-3-carboxamide]		50 to 100	> 100
